Results reported in PubChem BioAssay (NCI).
Values joined by “and” are separate entries in the source; they are usually repeats but may differ in a detail not shown here. Equal entries are not always repeated.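 Growth conditions: 96-well plates. Treatment: test compound, 48 hours, 5 concentrations. Analysis: linear interpolation between bracketing concentrations; unreached endpoints set to highest concentration. Here, GI50 denotes the concentration required for 50% inhibition of growth. TGI marks complete inhibition of growth.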

What was measured:
Test in all cases: DTP human tumour cell line panel, 48 h
786-0 renal = test system: 786-0 renal
SK-MEL-2 melanoma = test system: SK-MEL-2 melanoma
HCC-2998 colon = test system: HCC-2998 colon
COLO 205 colon = test system: COLO 205 colon
A498 renal = test system: A498 renal
U251 CNS = test system: U251 CNS
SK-MEL-5 melanoma = test system: SK-MEL-5 melanoma
K-562 leukemia = test system: K-562 leukemia
OVCAR-8 ovarian = test system: OVCAR-8 ovarian
IGROV1 ovarian = test system: IGROV1 ovarian

| Compound | GI50 (786-0 renal) | TGI (786-0 renal) | GI50 (SK-MEL-2 melanoma) | TGI (SK-MEL-2 melanoma) | GI50 (HCC-2998 colon) | TGI (HCC-2998 colon) | GI50 (COLO 205 colon) | TGI (COLO 205 colon) | GI50 (A498 renal) | TGI (A498 renal) | GI50 (U251 CNS) | TGI (U251 CNS) | GI50 (SK-MEL-5 melanoma) | TGI (SK-MEL-5 melanoma) | GI50 (K-562 leukemia) | TGI (K-562 leukemia) | GI50 (OVCAR-8 ovarian) | TGI (OVCAR-8 ovarian) | GI50 (IGROV1 ovarian) | TGI (IGROV1 ovarian) |
| --- | --- | --- | --- | --- | --- | --- | --- | --- | --- | --- | --- | --- | --- | --- | --- | --- | --- | --- | --- | --- |
| COc1ccc(-c2nn(-c3cccc(Cl)c3)cc2/C=C2\NC(=S)N(c3ccc(Cl)cc3)C2=O)cc1 | 5.57 µM | > 25 µM | 4.15 µM | 9.61 µM | 7.93 µM | > 25 µM | 5.59 µM | 11 µM | 3.51 µM | 8.56 µM | 2.86 µM | 6.99 µM | 4.22 µM | 11 µM | 3.12 µM | 7.92 µM | 2.62 µM | 7.02 µM | 4.99 µM | 10.1 µM |
| C/C(=N\Nc1ccccc1)c1sc(-c2nc(C)c(/C(C)=N/Nc3ccccc3)s2)nc1C | – | > 83.1 µM | – | > 100 µM | – | 19.9 µM | – | 25.6 µM | – | > 100 µM | – | > 100 µM | – | > 47.6 µM | – | 69.9 µM | – | > 100 µM | – | > 60.9 µM |
| CCCCCCCCCCC(=O)CCCCCCC(=O)O | – | 39.6 µM | – | > 100 µM | – | 36.1 µM | – | 29.8 µM | – | 42.7 µM | – | 86.1 µM | – | 29.3 µM | – | 26.9 µM | – | 33.7 µM | – | 34.9 µM |
| Cc1ccccc1/C=C/c1csnn1 | – | > 100 µM | – | > 100 µM | – | > 100 µM | – | > 100 µM | – | > 100 µM | – | > 100 µM | – | > 100 µM | – | > 100 µM | – | > 100 µM | – | > 100 µM |
| O/N=C1/CCCC/C1=C/C=C/c1ccccc1 | – | 55 µM | – | 36.6 µM | – | 45.2 µM | – | 35.4 µM | – | 41.2 µM | – | 32.3 µM | – | 30.2 µM | – | 96.1 µM | – | > 100 µM | – | 36.8 µM |
| O=C1Cc2c(-c3ccccc3)cc(-c3ccccc3)nc2-c2ccccc2N1 | 4.14 µM | 72.5 µM | – | 7.27 µM | – | 11.5 µM | – | 63.7 µM | – | 59.2 µM | – | 20 µM | – | 7.58 µM | – | > 100 µM | – | 21 µM | – | 68.5 µM |
| O=C(CCC(=O)Nc1ccccc1C(F)(F)F)N/N=C1\C(=N\NC(=O)CCC(=O)Nc2ccccc2C(F)(F)F)C(c2ccc3c(c2)OCO3)Oc2ccccc21 (stereo unspecified) | – | > 100 µM | – | > 100 µM | – | > 100 µM | – | > 100 µM | – | > 100 µM | – | 68.5 µM | – | > 100 µM | – | > 100 µM | – | > 100 µM | – | > 100 µM |
| O=CC(OC(=O)c1ccccc1)C(OC(=O)c1ccccc1)C(COC(c1ccccc1)(c1ccccc1)c1ccccc1)OC(=O)c1ccccc1 (stereo unspecified) | 20 µM | 41 µM | 18.4 µM | 50.4 µM | 17.4 µM | 31.5 µM | 11.8 µM | 25.4 µM | 15.5 µM | 29.7 µM | 7.51 µM | 20.2 µM | 15.4 µM | 30.3 µM | 8.09 µM | 27.4 µM | 4.76 µM | 54.1 µM | 12.4 µM | 37.7 µM |
| O=C1c2c(O)cccc2C(C(=O)CCCCCC(=O)C2c3cccc(O)c3C(=O)c3c(O)cccc32)c2cccc(O)c21 | – | 21.6 µM | 1.83 µM | 3.61 µM and 6.64 µM | 2.83 µM | 25 µM and 12.7 µM | 7.8 µM | 25 µM and 15.5 µM | 21 µM | 10.9 µM and 37.6 µM | 2.5 µM | 3.11 µM and 8.21 µM | 7.96 µM | – | 2.86 µM | 25 µM and 12.5 µM | 6.8 µM | 8.5 µM and 15.6 µM | 12.5 µM | 6.13 µM and 28.6 µM |
| Cc1cc(=O)oc2c(C3=NN(C=O)C(c4ccccc4)C3)c(O)ccc12 (stereo unspecified) | – | 81.4 µM | – | > 100 µM | – | > 100 µM | – | > 81.1 µM | – | > 92.9 µM | – | > 100 µM | – | > 100 µM | – | > 100 µM | – | > 100 µM | – | > 100 µM |
| CCc1cccc(C(C)C)c1NC(=O)CC1Sc2ccccc2NC1=O (stereo unspecified) | – | > 100 µM | – | > 100 µM | – | > 100 µM | – | > 100 µM | – | > 100 µM | – | > 100 µM | – | > 100 µM | – | > 100 µM | – | > 100 µM | – | > 100 µM |
| COC(=O)C(C(=O)C(=O)Nc1ccc(C)cc1)c1nc2ccc([N+](=O)[O-])cc2[nH]c1=O (stereo unspecified) | – | > 100 µM | – | > 100 µM | – | > 100 µM | – | > 100 µM | – | > 100 µM | – | > 100 µM | – | > 100 µM | – | > 100 µM | – | > 100 µM | – | > 100 µM |
| c1ccc2c(c1)[nH]c1cnc3c4ncccc4[nH]c3c12 | – | > 100 µM | – | > 100 µM | – | > 100 µM | – | > 100 µM | – | > 100 µM | – | > 100 µM | – | > 100 µM | – | > 100 µM | – | > 100 µM | – | > 100 µM |
| O=C(CCc1nc(=S)[nH][nH]1)Nc1cc(Cl)ccc1Cl | – | > 100 µM | – | > 100 µM | – | > 100 µM | – | > 100 µM | – | > 100 µM | – | > 100 µM | – | > 100 µM | – | > 100 µM | – | > 100 µM | – | > 100 µM |
| Cc1nnc(C[C@@H]2C=C(c3ccc(Cl)cc3)c3ccccc3-n3c(C)nnc32)o1 | 1.04 µM | 38.7 µM | 10.2 µM | 47.6 µM | 1.33 µM | 18.6 µM | 0.296 µM | 24.1 µM | 0.712 µM | 12.7 µM | 4.81 µM | > 76.1 µM | 1.81 µM | 19.7 µM | 0.809 µM | > 100 µM | 2.94 µM | > 67.4 µM | 2.3 µM | > 100 µM |
| CC1=C(C(=O)Nc2cccc(Cl)c2)C(c2ccccc2O)C(C(=O)Nc2cccc(Cl)c2)=C(C)N1 | – | 29.2 µM | – | 32.2 µM | – | 33.1 µM | – | 43.2 µM | – | 38 µM | – | 41.4 µM | – | 31.5 µM | – | 53.7 µM | – | 60.1 µM | – | 70.7 µM |
| Cc1cccc(C(C)(C)C)c1NC(=O)C(C#N)C1=C(Cl)C(=O)c2ccccc2C1=O (stereo unspecified) | – | 30 µM | – | 30.7 µM | – | 29.7 µM | – | 35 µM | – | 44.4 µM | – | 31.3 µM | – | 31.5 µM | – | 10.2 µM | – | 37.4 µM | – | 33 µM |
| Cc1noc2cccc(O)c12 | – | > 100 µM | – | > 100 µM | – | > 100 µM | – | > 100 µM | – | > 100 µM | – | > 100 µM | – | > 100 µM | – | > 100 µM | – | > 100 µM | – | > 100 µM |
| COc1cccc(/C=N/[N-]C(=O)c2ccncc2)c1[O-].[Mn+2].[OH3+] | 5.43 µM | > 100 µM | 25.6 µM | > 100 µM | 19 µM | > 100 µM | 4.49 µM | > 100 µM | 27.4 µM | 94.3 µM | 5.45 µM | > 100 µM | 12.3 µM | 30.3 µM | 2.9 µM | 9.69 µM | 3.77 µM | > 100 µM | 8.29 µM | > 100 µM |
| COC(=O)C(=O)C(CC(=O)Nc1cc(Cl)ccc1Cl)C(=O)OC (stereo unspecified) | – | > 100 µM | – | > 100 µM | – | > 100 µM | – | > 100 µM | – | > 100 µM | – | > 100 µM | – | > 100 µM | – | > 100 µM | – | > 100 µM | – | > 100 µM |
| CC(=O)N[C@H](C)[C@@H](O)[C@@H](C)[C@@H]1OC(=O)/C=C/C=C(C)\C=C\[C@]2(C)C[C@@H](NS(C)(=O)=O)C=C[C@@H]2/C=C(C)/C=C/[C@H]1C | 0.0469 µM and 0.0185 µM | > 43.5 µM | 3.88 µM and 24.1 µM | > 43.5 µM | – | > 43.5 µM | 0.00692 µM and 0.0199 µM | > 43.5 µM | 0.0068 µM and 0.0121 µM | – | 0.00368 µM and 0.00435 µM | > 43.5 µM | 0.00313 µM and 0.00786 µM | 0.0151 µM and 0.0256 µM | 0.00684 µM and 0.0218 µM | > 43.5 µM | 0.017 µM | > 43.5 µM | 0.0185 µM and 0.014 µM | > 43.5 µM |
| N#C/C(=C\c1ccc(O)c(O)c1)C(=O)NCc1ccc(C(F)(F)F)cc1 | 18.4 µM | 37.5 µM | – | 6.34 µM | 12.1 µM | 24.5 µM | 12.1 µM | 43.3 µM | 16 µM | 36.1 µM | 5.67 µM | 28.9 µM | 8.09 µM | 24.4 µM | 9.91 µM | > 83.6 µM | 10.1 µM | > 49.7 µM | 2.4 µM | 14.4 µM |
